pKd: −log10 of the molar value. “And” between values parts separate entries of the source, which are not always exact repeats. Identical values can stand only once.
Target: T1, wild-type mouse TMEM16A (Mus musculus, UniProt Q8BHY3)
T1 construct: expressed in transfected cells; host or cells: HEK293T
T1 sequence (Q8BHY3 1-960): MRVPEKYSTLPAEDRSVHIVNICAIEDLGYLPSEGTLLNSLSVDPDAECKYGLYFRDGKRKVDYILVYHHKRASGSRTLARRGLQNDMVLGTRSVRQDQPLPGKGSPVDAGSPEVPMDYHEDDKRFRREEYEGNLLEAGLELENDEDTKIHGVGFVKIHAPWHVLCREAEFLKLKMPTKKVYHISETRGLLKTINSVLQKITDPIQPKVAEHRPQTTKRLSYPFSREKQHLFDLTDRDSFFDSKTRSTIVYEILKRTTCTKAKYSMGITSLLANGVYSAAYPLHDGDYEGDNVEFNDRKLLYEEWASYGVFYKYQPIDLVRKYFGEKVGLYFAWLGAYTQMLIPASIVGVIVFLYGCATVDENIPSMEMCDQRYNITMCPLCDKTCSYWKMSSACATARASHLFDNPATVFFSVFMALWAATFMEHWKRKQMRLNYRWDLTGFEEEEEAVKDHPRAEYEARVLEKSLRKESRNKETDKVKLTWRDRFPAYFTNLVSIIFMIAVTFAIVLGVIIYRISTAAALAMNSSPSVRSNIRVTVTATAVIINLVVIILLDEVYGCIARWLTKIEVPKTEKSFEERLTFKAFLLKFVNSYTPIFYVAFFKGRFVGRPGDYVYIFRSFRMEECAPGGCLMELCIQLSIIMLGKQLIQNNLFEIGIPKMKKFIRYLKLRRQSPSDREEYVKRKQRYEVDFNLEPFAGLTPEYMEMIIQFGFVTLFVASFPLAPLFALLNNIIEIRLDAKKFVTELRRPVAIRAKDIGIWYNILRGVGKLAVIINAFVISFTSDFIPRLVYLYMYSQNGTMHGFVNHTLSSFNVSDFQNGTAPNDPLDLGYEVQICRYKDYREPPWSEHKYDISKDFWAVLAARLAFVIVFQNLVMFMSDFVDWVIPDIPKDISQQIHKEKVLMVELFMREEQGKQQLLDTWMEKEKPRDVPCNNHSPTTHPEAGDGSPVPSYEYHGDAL
Assay: Global fit of 1PBC inhibition profiles to an open-channel block mechanism
Assay type: cell-based
Excerpt: The inhibition profiles of 1PBC at different Ca^2+ concentrations were fitted to a mechanism assuming that the blocker preferentially binds to the open state. This was incorporated by adding a blocker binding step to the open state in a gating mechanism that we described previously[28] (Supplementary Fig. 9a). The matrix notation of this mechanism[73] is 4 Q=−k01−bk07v07^δb/2k0100000bk07v07^δb/2k10−k10−k12k12000000k21−k21−k23−k24k23k2400000k32−k32−k35v35^δCa/20k35v35^δCa/20000xk42v42^δCa/20−xk42v42^δCa/2−k45k4500000xk53v53^δCa/2k54−xk53v53^δCa/2−k54−k56v56^δCa/2k56v56^δCa/2000000xk65v65^δCa/2−xk65v65^δCa/20k70v70^δb/2000000−k70v70^δb/2 where x and b are the molar concentration of Ca^2+ and the blocker respectively, and the subscripts indicate the transition described by the rate constant k in s^−1, for example, k01 corresponds to the rate constant of the transition from state 0 to 1. δb and δCa are the fraction of membrane potential that modulates the corresponding transitions. […]
The equilibrium occupancy of states was calculated using[73],[74]7 P∞=P(0)(Vλ=0V^−1λ=0) where P(0) is the initial occupancy and V can be obtained from the Eigen decomposition of Q8 Q=VΛV^−1 and9 Λ=λ1⋱λnV=v11⋯vn1⋮⋱⋮v1n⋯vnn are the Eigenvalue and Eigenvector matrices respectively. The open probability calculated using Eq. 7 was used to compute the squared difference for each data point. […]

## N#Cc1c(C(F)(F)F)cc(O)n2c1nc1ccccc12 [1PBC]
Fit at +80 and −80 mV
  Apparent valence δb: ~ 0.27 and 0.27 ± 0.025
Zero mV, read-out: Kd 1PBC (open state)
  pKd: ~5.44 and 5.44
